Experimental data: ChEMBL document CHEMBL4651402, “Screening of ~5500 FDA-approved drugs and clinical candidates for anti-SARS-CoV-2 activity” (2021)

Test system: SARS-CoV-2
Test: microbe, parasite or virus in culture
Details: Severe acute respiratory syndrome coronavirus 2, Vero C1008, 48 h

Row | Structure (SMILES) | IC50 | IC50 (read-out: pIC50 (converted))
1 | CC(=O)Oc1cccc2c1C(=O)c1c(OC(C)=O)cc(C(=O)O)cc1C2=O [DIACEREIN] | > 20 µM | > 20 µM
2 | CC(=O)Nc1ccc(OC(C)=O)cc1 [DIACETAMATE] | > 20 µM | > 20 µM
3 | CCN(CC)CCOc1ccc2nc(N(C)C)sc2c1 [DIAMTHAZOLE] | > 20 µM | > 20 µM
4 | CC(=O)Nc1c(I)c(NC(C)=O)c(I)c(C(=O)O)c1I [DIATRIZOIC ACID] | > 20 µM | > 20 µM
5 | COc1ccc(Cc2cnc(N)nc2N)cc1OC [DIAVERIDINE] | > 20 µM | > 20 µM
6 | CN1C(=O)CN=C(c2ccccc2)c2cc(Cl)ccc21 [DIAZEPAM] | > 20 µM | > 20 µM
7 | CCOC(=O)NC1=C(N2CC2)C(=O)C(NC(=O)OCC)=C(N2CC2)C1=O [DIAZIQUONE] | > 20 µM | > 20 µM
8 | CC1=Nc2ccc(Cl)cc2S(=O)(=O)N1 [DIAZOXIDE] | > 20 µM | > 20 µM
9 | CN(C)CCN1C(=O)c2ccccc2N(C)c2ccccc21 [DIBENZEPIN] | > 20 µM | > 20 µM
10 | N[C@@H](Cc1cc(Br)c(O)c(Br)c1)C(=O)O [DIBROMOTYROSINE] | > 20 µM | > 20 µM
11 | CC(=O)OCC(=O)[C@@]1(O)CC[C@H]2[C@@H]3CCC4=CC(=O)C=C[C@]4(C)[C@@]3(Cl)[C@@H](Cl)C[C@@]21C [DICHLORISONE ACETATE] | > 20 µM | > 20 µM
12 | O=C(O)C(Cl)Cl [DICHLOROACETIC ACID] | > 20 µM | > 20 µM
13 | OCc1ccc(Cl)cc1Cl [DICHLOROBENZYL ALCOHOL] | > 20 µM | > 20 µM
14 | Oc1ccc(Cl)cc1Cc1cc(Cl)ccc1O [DICHLOROPHEN] | > 20 µM | > 20 µM
15 | NS(=O)(=O)c1cc(Cl)c(Cl)c(S(N)(=O)=O)c1 [DICHLORPHENAMIDE] | > 20 µM | > 20 µM
16 | COP(=O)(OC)OC=C(Cl)Cl [DICHLORVOS] | > 20 µM | > 20 µM
17 | N#CC(c1ccc(Cl)cc1)c1c(Cl)cc(-n2ncc(=O)[nH]c2=O)cc1Cl (stereo not given) [DICLAZURIL] | > 20 µM | > 20 µM
18 | O=C(O)Cc1ccccc1Nc1c(Cl)cccc1Cl [DICLOFENAC] | > 20 µM | > 20 µM
19 | Cc1onc(-c2c(Cl)cccc2Cl)c1C(=O)N[C@@H]1C(=O)N2[C@@H]1SC(C)(C)[C@@H]2C(=O)O [DICLOXACILLIN] | > 20 µM | > 20 µM
20 | COc1c2ccccc2nc2occc12 [DICTAMNINE] | > 20 µM | > 20 µM
21 | O=c1oc2ccccc2c(O)c1Cc1c(O)c2ccccc2oc1=O [DICUMAROL] | > 20 µM | > 20 µM
22 | CCN(CC)CCOC(=O)C1(C2CCCCC2)CCCCC1 [DICYCLOMINE] | > 20 µM | > 20 µM
23 | C/C=C(/C(=C/C)c1ccc(O)cc1)c1ccc(O)cc1 [DIENESTROL] | > 20 µM | > 20 µM
24 | CCOP(=O)(O)OCC [DIETHYL HYDROGEN PHOSPHATE] | > 20 µM | > 20 µM
25 | CCN(CC)C(=O)N1CCN(C)CC1 [DIETHYLCARBAMAZINE] | > 20 µM | > 20 µM

Row | Structure (SMILES) | IC50 | IC50 (read-out: pIC50 (converted))
26 | CCN(CC)C(C)C(=O)c1ccccc1 (stereo not given) [DIETHYLPROPION] | > 20 µM | > 20 µM
27 | CC/C(=C(/CC)c1ccc(O)cc1)c1ccc(O)cc1 [DIETHYLSTILBESTROL] | > 20 µM | > 20 µM
28 | CCN(CC)C(=O)c1cccc(C)c1 [DIETHYLTOLUAMIDE] | > 20 µM | > 20 µM
29 | OCCN1CCCCC1C(c1ccccc1)c1ccccc1 (stereo not given) [DIFEMETOREX] | > 20 µM | > 20 µM
30 | N#CC(CCN1CCC(C(=O)O)(c2ccccc2)CC1)(c1ccccc1)c1ccccc1 [DIFENOXIN] | > 20 µM | > 20 µM
31 | O=C(Cc1ccc(-c2ccccc2)cc1)Nc1ccccn1 [DIFENPIRAMIDE] | > 20 µM | > 20 µM
32 | CC(=O)OCC(=O)[C@@]1(OC(C)=O)[C@@H](C)C[C@H]2[C@@H]3C[C@H](F)C4=CC(=O)C=C[C@]4(C)[C@@]3(F)[C@@H](O)C[C@@]21C [DIFLORASONE DIACETATE] | > 20 µM | > 20 µM
33 | CN1CCN(c2cc3c(cc2F)c(=O)c(C(=O)O)cn3-c2ccc(F)cc2)CC1 [DIFLOXACIN] | > 20 µM | > 20 µM
34 | CCCC(=O)O[C@]1(C(=O)COC(C)=O)CC[C@H]2[C@@H]3C[C@H](F)C4=CC(=O)C=C[C@]4(C)[C@@]3(F)[C@@H](O)C[C@@]21C [DIFLUPREDNATE] | > 20 µM | > 20 µM
35 | O=C1c2ccccc2CN2C(=O)c3ccccc3CN12 [DIFTALONE] | > 20 µM | > 20 µM
36 | C[C@H]1O[C@@H](O[C@H]2[C@@H](O)C[C@H](O[C@H]3[C@@H](O)C[C@H](O[C@H]4CC[C@@]5(C)[C@H](CC[C@@H]6[C@@H]5CC[C@]5(C)[C@@H](C7=CC(=O)OC7)CC[C@]65O)C4)O[C@@H]3C)O[C@@H]2C)C[C@H](O)[C@@H]1O [DIGITOXIN] | > 20 µM | > 20 µM
37 | C[C@H]1O[C@@H](O[C@H]2[C@@H](O)C[C@H](O[C@H]3[C@@H](O)C[C@H](O[C@H]4CC[C@@]5(C)[C@H](CC[C@@H]6[C@@H]5C[C@@H](O)[C@]5(C)[C@@H](C7=CC(=O)OC7)CC[C@]65O)C4)O[C@@H]3C)O[C@@H]2C)C[C@H](O)[C@@H]1O [DIGOXIN] | > 20 µM | > 20 µM
38 | N/N=c1\[nH][nH]/c(=N\N)c2ccccc12 [DIHYDRALAZINE] | > 20 µM | > 20 µM
39 | CC(C)[C@@]1(NC(=O)[C@@H]2C[C@@H]3c4cccc5[nH]cc(c45)C[C@H]3N(C)C2)O[C@@]2(O)[C@@H]3CCCN3C(=O)[C@H](Cc3ccccc3)N2C1=O [DIHYDROERGOCRISTINE] | > 20 µM | > 20 µM
40 | CN1C[C@H](C(=O)N[C@]2(C)O[C@@]3(O)[C@@H]4CCCN4C(=O)[C@H](Cc4ccccc4)N3C2=O)C[C@@H]2c3cccc4[nH]cc(c34)C[C@H]21 [DIHYDROERGOTAMINE] | > 20 µM | > 20 µM
41 | COc1cc2c(cc1OC)[C@@H]1C(=O)c3ccc4c(c3O[C@@H]1CO2)CC(C(C)C)O4 (stereo not given in full) [DIHYDROROTENONE] | > 20 µM | > 20 µM
42 | CCCCCCCCCCCCCCC[C@@H](O)[C@@H](N)CO [DIHYDROSPINGOSINE] | > 20 µM | > 20 µM
43 | O=C(CO)CO [DIHYDROXYACETONE] | > 20 µM | > 20 µM
44 | CC(C)N(CCC(c1ccccc1)c1ccccc1)C(C)C [DIISOPROMINE] | > 20 µM | > 20 µM
45 | C[C@H](CCc1ccccc1)NC[C@H](O)c1ccc(O)c(C(N)=O)c1 [DILEVALOL] | > 20 µM | > 20 µM
46 | CN(C(=O)C(Cl)Cl)c1ccc(OC(=O)c2ccco2)cc1 [DILOXANIDE FUROATE] | > 20 µM | > 20 µM
47 | COc1ccc([C@@H]2Sc3ccccc3N(CCN(C)C)C(=O)[C@@H]2OC(C)=O)cc1 [DILTIAZEM] | > 20 µM | > 20 µM
48 | CN(C)CCOC(c1ccccc1)c1ccccc1.Cn1c(=O)c2[nH]c(Cl)nc2n(C)c1=O [DIMENHYDRINATE] | > 20 µM | > 20 µM
49 | CCOC(C(=O)OCCN(C)C)(c1ccccc1)c1ccccc1 [DIMENOXADOL] | > 20 µM | > 20 µM
50 | CCC(O)C(CC(C)N(C)C)(c1ccccc1)c1ccccc1 (stereo not given) [DIMEPHEPTANOL] | > 20 µM | > 20 µM
